Measurements reported in patent publication US20260035340A1, “INHIBITORS OF AKR1C3 AND METHODS OF USE” (BOARD OF REGENTS OF THE UNIVERSITY OF NEBRASKA, priority 2022, published 2026).
Read-outs that look alike come from different tables or passages of the source.

How the values were obtained:
Format in all cases: biochemical
AKR1C3 = AKR1C3 (Homo sapiens (Human), UniProt P42330); assay: AKR enzyme inhibition assay, NADP+ dependent oxidation of S-tetralol, AKR1C3; conditions: for Selectivity 1C2:1C3: ratio of AKR1C2 to AKR1C3 IC50; for selectivity over AKR1C2: AKR1C3 over AKR1C2
Method: (§1) Structure-Activity Relationship: The ability of compounds to inhibit AKR1C3 in the first instance were determined by measuring the NADP+ dependent oxidation of S-tetralol catalyzed by recombinant enzyme as described herein. […] Assay of enzyme activity: The dehydrogenase activities of AKR1C1, AKR1C2, and AKR1C3 were determined by measuring the formation of NADH formation at 340 nm using Beckman DU640 spectrophotometer. […] After continuously monitoring for 5 min, the increase in UV absorption using different concentrations of enzyme were recorded to calculate the initial velocity and determine enzyme specific activity. IC50 value determination: The inhibitory potency for each compound was represented by IC50 value and measured as described before. […] The concentration of S-tetralol used in the assays for each AKR1C isoform was equal to the Km value for the respective enzyme so that IC50 values could be directly compared assuming a competitive pattern of inhibition. […] In this equation, “range” is the fitted uninhibited value minus the “background”, and “S” is a slope factor. “I” is the concentration of inhibitor. The equation assumes that y falls with increasing “I”.

AKR1C1 = AKR1C1 (Homo sapiens (Human), UniProt Q04828); assay: AKR enzyme inhibition assay, NADP+ dependent oxidation of S-tetralol, AKR1C1; conditions: Table 2; recombinant enzyme, S-tetralol at Km; read-out: IC50 ± SD AKR1C1
Method: (§2) Assay of enzyme activity: The dehydrogenase activities of AKR1C1, AKR1C2, and AKR1C3 were determined by measuring the formation of NADH formation at 340 nm using Beckman DU640 spectrophotometer. […] After continuously monitoring for 5 min, the increase in UV absorption using different concentrations of enzyme were recorded to calculate the initial velocity and determine enzyme specific activity. IC50 value determination: The inhibitory potency for each compound was represented by IC50 value and measured as described before. […] The concentration of S-tetralol used in the assays for each AKR1C isoform was equal to the Km value for the respective enzyme so that IC50 values could be directly compared assuming a competitive pattern of inhibition. […] In this equation, “range” is the fitted uninhibited value minus the “background”, and “S” is a slope factor. “I” is the concentration of inhibitor. The equation assumes that y falls with increasing “I”.

AKR1C2 = AKR1C2 (Homo sapiens (Human), UniProt P52895); assay: AKR enzyme inhibition assay, NADP+ dependent oxidation of S-tetralol, AKR1C2 counter-screen
Method: as §1

AKR1C4 = AKR1C4 (Homo sapiens (Human), UniProt P17516); assay: AKR enzyme inhibition assay, AKR1C4; conditions: Table 2; recombinant enzyme; read-out: IC50 ± SD AKR1C4
Method: as §2

[1] = Table 2, recombinant enzyme, S-tetralol at Km, read-out: IC50 ± SD AKR1C2
[2] = Table 2, recombinant enzyme, S-tetralol at Km, read-out: IC50 ± SD AKR1C3
[3] = Table 3, compounds of formula (A4), read-out: IC50 AKR1C3
[4] = Table 4, compounds of formula (A3), read-out: IC50 AKR1C3

AKR1C3, sequence (P42330 whole entry): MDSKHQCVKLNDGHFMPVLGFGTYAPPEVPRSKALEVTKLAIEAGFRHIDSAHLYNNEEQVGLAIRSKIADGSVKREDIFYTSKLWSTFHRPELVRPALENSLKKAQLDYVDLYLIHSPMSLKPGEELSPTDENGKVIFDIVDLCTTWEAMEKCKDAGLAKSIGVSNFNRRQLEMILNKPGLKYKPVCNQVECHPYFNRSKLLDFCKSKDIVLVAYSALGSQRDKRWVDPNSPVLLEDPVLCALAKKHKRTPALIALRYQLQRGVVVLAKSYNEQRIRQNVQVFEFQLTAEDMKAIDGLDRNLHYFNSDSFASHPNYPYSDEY
AKR1C2, sequence (P52895 whole entry): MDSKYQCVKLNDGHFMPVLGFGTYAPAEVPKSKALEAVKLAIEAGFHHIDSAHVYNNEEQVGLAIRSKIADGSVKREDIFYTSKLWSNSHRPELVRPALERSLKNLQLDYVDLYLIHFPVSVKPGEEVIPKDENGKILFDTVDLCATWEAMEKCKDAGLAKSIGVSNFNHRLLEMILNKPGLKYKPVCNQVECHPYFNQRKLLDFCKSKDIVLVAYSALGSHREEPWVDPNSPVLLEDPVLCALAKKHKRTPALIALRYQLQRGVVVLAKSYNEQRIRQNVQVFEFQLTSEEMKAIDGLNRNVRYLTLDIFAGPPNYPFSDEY
AKR1C1, sequence (Q04828 whole entry): as the sequence (P52895 whole entry) above, with V38T, H47R, V54L, S87C, M151V, H170R, L172Q counted along it
AKR1C4, sequence (P17516 whole entry): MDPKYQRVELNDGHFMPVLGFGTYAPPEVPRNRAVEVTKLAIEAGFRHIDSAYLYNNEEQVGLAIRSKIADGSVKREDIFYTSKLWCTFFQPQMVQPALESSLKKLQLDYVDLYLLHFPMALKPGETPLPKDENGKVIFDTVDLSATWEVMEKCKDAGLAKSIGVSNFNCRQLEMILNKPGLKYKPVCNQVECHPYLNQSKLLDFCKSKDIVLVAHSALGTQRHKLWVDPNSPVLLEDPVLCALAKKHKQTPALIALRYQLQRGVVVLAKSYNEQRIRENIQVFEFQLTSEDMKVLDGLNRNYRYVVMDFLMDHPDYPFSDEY

Row | SMILES | IC50 (AKR1C3; read-out: IC50 AKR1C3) [nM] | IC50 (AKR1C2; [1]) [nM] | IC50 (AKR1C3; [2]) [nM] | also measured
1 | Cc1ccc(CNC(=O)c2cc(Br)cc(/C=C/C(N)=O)c2)cc1 [Compound 12, (E)-3-(3-Amino-3-oxoprop-1-en-1-yl)-5-bromo-N-(4-methylbenzyl)benzamide] | – | – | – | IC50 (AKR1C3; [3]): 28000 ± 2900 nM
2 | Cc1ccc(CNC(=O)c2cc(/C=C/C(N)=O)cc(-c3ccc(Oc4ccccc4)cc3)c2)cc1 [Compound 13, (E)-5-(3-Amino-3-oxoprop-1-en-1-yl)-N-(4-methylbenzyl)-4′-phenoxy-[1,1′-biphenyl]-3-carboxamide] | 2700 | – | – | –
3 | Cc1ccc(CNC(=O)c2cc(/C=C/C#N)cc(-c3ccc(Oc4ccccc4)cc3)c2)cc1 [Compound 16a, (E)-5-(2-Cyanovinyl)-N-(4-methylbenzyl)-4′-phenoxy-[1,1′-biphenyl]-3-carboxamide] | 1400 | – | – | IC50 (AKR1C3; [3]): 1400 ± 300 nM
4 | CC(C)=CCc1cc(/C=C/C#N)cc(C(=O)NCc2ccc(C)cc2)c1 [Compound 16b, (E)-3-(2-Cyanovinyl)-N-(4-methylbenzyl)-5-(3-methylbut-2-en-1-yl)benzamide] | 2700 | – | – | IC50 (AKR1C3; [3]): 2700 ± 370 nM
5 | CC[C@@H](NC(=O)c1cc(/C=C/C(=O)O)cc(-c2ccc(C(C)C)cc2)c1)c1ccccc1 [Compound 20a, (R,E)-3-(4′-Isopropyl-5-((1-phenylpropyl)carbamoyl)-[1,1′-biphenyl]-3-yl)acrylic acid] | – | – | – | IC50 (AKR1C2; Table 4, compounds of formula (A3), read-out: IC50 AKR1C2): 6000 ± 1400 nM; IC50 (AKR1C3; [4]): 120 ± 14 nM; Selectivity 1C2:1C3 (AKR1C3; Table 4): 51
6 | CC[C@@H](NC(=O)c1cc(/C=C/C(=O)O)cc(-c2ccc(Oc3ccccc3)cc2)c1)c1ccccc1 [Compound 20b, (R,E)-3-(4′-Phenoxy-5-((1-phenylpropyl)carbamoyl)-[1,1′-biphenyl]-3-yl)acrylic acid] | – | – | – | IC50 (AKR1C3; [4]): 260 ± 16.6 nM
7 | Cc1ccc(CNC(=O)c2cc(/C=C/C(=O)O)cc(-c3ccc(C(F)(F)F)cc3)c2)cc1 [Compound A1-h, (E)-3-(5-((4-Methylbenzyl)carbamoyl)-4′-(trifluoromethyl)-[1,1′-biphenyl]-3-yl)acrylic acid] | – | – | 200 ± 20 | –
8 | Cc1ccc(CNC(=O)c2cc(/C=C/C(=O)O)cc(-c3ccc(C#N)cc3)c2)cc1 [Compound A1-m, (E)-3-(4′-Cyano-5-((4-methylbenzyl)carbamoyl)-[1,1′-biphenyl]-3-yl)acrylic acid] | – | – | 170 ± 10 | –
9 | Cc1ccc(CNC(=O)c2cc(/C=C/C(=O)O)cc(-c3ccc(Oc4ccccc4)cc3)c2)cc1 [Compound A1-n, (E)-3-(5-((4-Methylbenzyl)carbamoyl)-4′-phenoxy-[1,1′-biphenyl]-3-yl)acrylic acid] | – | 4800 ± 1200 | 94 ± 10 | selectivity over AKR1C2 (AKR1C3): 51 fold
10 | Cc1ccc(CNC(=O)c2cc(/C=C/C(=O)O)cc(-c3ccc(-c4ccccc4)cc3)c2)cc1 [Compound A1-u, (E)-3-(5-((4-Methylbenzyl)carbamoyl)-[1,1′:4′,1″-terphenyl]-3-yl)acrylic acid] | – | 29000 ± 4800 | 50 ± 4 | Selectivity 1C2:1C3 (AKR1C3; Table 2): 580; IC50 (AKR1C4): 2400 ± 150 nM
11 | Cc1ccc(CNC(=O)c2cc(C#Cc3ccccc3)cc(/C=C/C(=O)O)c2)cc1 [Compound A1-w, (E)-3-(3-((4-methylbenzyl)carbamoyl)-5-(phenylethynyl)phenyl)acrylic acid] | – | 11000 ± 3100 | 180 ± 19 | selectivity over AKR1C2 (AKR1C3): 61 fold
12 | Cc1ccc(CNC(=O)c2cc(/C=C/C(=O)O)cc(CC(C)c3ccccc3)c2)cc1 (centres unmarked) [Compound A1-x, (E)-3-(3-((4-Methylbenzyl)carbamoyl)-5-(2-phenylpropyl)phenyl)acrylic acid] | 880 | 156000 ± 71000 | – | selectivity over AKR1C2 (AKR1C3): 177 fold
13 | Cc1ccc(CNC(=O)c2cc(/C=C/C(=O)O)cc(-c3ccc(CN4CCOCC4)c(F)c3)c2)cc1 [Compound A1-y, (E)-3-(3′-Fluoro-5-((4-methylbenzyl)carbamoyl)-4′-(morpholinomethyl)-[1,1′-biphenyl]-3-yl)acrylic acid] | 330 | 5100 ± 600 | – | selectivity over AKR1C2 (AKR1C3): 16 fold

Further lines, with some results ahead:

Row | IC50 (AKR1C3; read-out: IC50 AKR1C3) [nM] | IC50 (AKR1C2; [1]) [nM] | IC50 (AKR1C3; [2]) [nM] | SMILES | also measured
14 | 200 | – | – | COC(=O)/C=C/c1cc(Br)cc(C(=O)NCc2ccc(C)cc2)c1 [Compound 3] | –
15 | – | 15000 ± 2400 | 80 ± 10 | CC(C)=CCOc1cc(/C=C/C(=O)O)cc(C(=O)NCc2ccc(C)cc2)c1 [Compound 10, (E)-3-(3-((4-Methylbenzyl)carbamoyl)-5-((3-methylbut-2-en-1-yl)oxy)phenyl)acrylic acid] | IC50 (AKR1C1): 52000 ± 7000 nM; Selectivity 1C2:1C3 (AKR1C3; Table 2): 187; IC50 (AKR1C4): 31000 ± 5000 nM
16 | – | > 100000 | 300 ± 10 | Cc1ccc(CNC(=O)c2cc(Br)cc(/C=C/C(=O)O)c2)cc1 [Compound 11, (E)-3-(3-Bromo-5-((4-methylbenzyl)carbamoyl)phenyl)acrylic acid] | Selectivity 1C2:1C3 (AKR1C3; Table 2): >333; IC50 (AKR1C4): 40000 ± 1300 nM
17 | 400 | – | – | Cc1ccc(CNC(=O)c2cc(Br)cc(/C=C/C(=O)N(C)C)c2)cc1 [Compound 14, (E)-3-Bromo-5-(3-(dimethylamino)-3-oxoprop-1-en-1-yl)-N-(4-methylbenzyl)benzamide] | increased activity over terminal primary amide 12 (AKR1C3; AKR1C3 inhibition): > 66 fold
18 | 170 | – | – | Cc1ccc(CNC(=O)c2cc(Br)cc(/C=C/C#N)c2)cc1 [Compound 15, (E)-3-Bromo-5-(2-cyanovinyl)-N-(4-methylbenzyl)benzamide] | –
19 | 40 | > 100000 | – | Cc1ccc(CNC(=O)c2cc(/C=C/C(=O)O)cc(-c3ccccc3)c2)cc1 [Compound A1-a, (E)-3-(5-((4-Methylbenzyl)carbamoyl)-[1,1′-biphenyl]-3-yl)acrylic acid] | IC50 (AKR1C1): > 100000 nM; selectivity over AKR1C2 (AKR1C3): > 2320 fold; Selectivity 1C2:1C3 (AKR1C3; Table 2): >2500; IC50 (AKR1C4): 21000 ± 2500 nM
20 | – | 16000 ± 2500 | 80 ± 4 | C/C=C\Cc1cc(/C=C/C(=O)O)cc(C(=O)NCc2ccc(C)cc2)c1 [Compound A1-aa, (E)-3-(3-((Z)-but-2-en-1-yl)-5-((4-methylbenzyl)carbamoyl)phenyl)acrylic acid] | IC50 (AKR1C1): 81000 ± 5100 nM; selectivity over AKR1C2 (AKR1C3): 200 fold; IC50 (AKR1C4): 25000 ± 3100 nM
21 | – | 37000 ± 9600 | 500 ± 40 | Cc1ccc(CNC(=O)c2cc(C#CC3CC3)cc(/C=C/C(=O)O)c2)cc1 [Compound A1-bb, (E)-3-(3-(Cyclopropylethynyl)-5-((4-methylbenzyl)carbamoyl)phenyl)acrylic acid] | selectivity over AKR1C2 (AKR1C3): 74 fold
22 | 130 | – | – | Cc1ccc(CNC(=O)c2cc(/C=C/C(=O)O)cc(-c3ccc(F)cc3F)c2)cc1 [Compound A1-g, (E)-3-(2′,4′-Difluoro-5-((4-methylbenzyl)carbamoyl)-[1,1′-biphenyl]-3-yl)acrylic acid] | –
23 | – | – | 190 ± 10 | CCc1ccc(-c2cc(/C=C/C(=O)O)cc(C(=O)NCc3ccc(C)cc3)c2)cc1 [Compound A1-j, (E)-3-(4′-Ethyl-5-((4-methylbenzyl)carbamoyl)-[1,1′-biphenyl]-3-yl)acrylic acid] | –
24 | 190 | – | – | Cc1ccc(CNC(=O)c2cc(/C=C/C(=O)O)cc(-c3ccc(C(C)C)cc3)c2)cc1 [Compound A1-k, (E)-3-(4′-Isopropyl-5-((4-methylbenzyl)carbamoyl)-[1,1′-biphenyl]-3-yl)acrylic acid] | –
25 | – | – | 170 ± 30 | COc1ccc(-c2cc(/C=C/C(=O)O)cc(C(=O)NCc3ccc(C)cc3)c2)cc1 [Compound A1-l, (E)-3-(4′-Methoxy-5-((4-methylbenzyl)carbamoyl)-[1,1′-biphenyl]-3-yl)acrylic acid] | –
